Source: article PMC8621208, “Antiseptic 9-Meric Peptide with Potency against Carbapenem-Resistant Acinetobacter baumannii Infection” (International Journal of Molecular Sciences, 2021)
In brackets after ≈: the same amount, converted by molar mass. Like-named read-outs stand apart in the source and are kept apart here. Where a SMILES comes first, the peptide text is derived from it. [ ]: non-standard residue; d: D form.

Legend:
E. coli [1] = assay: MIC, broth dilution; format: cell-based, Escherichia coli KCTC 1682; details: E. coli; 16 h, MH media; read-out: Minimal Inhibitory Concentration (MIC)
From the text: (§1) Escherichia coli KCTC 1682 was obtained from the Korean Collection for Type Cultures (KCTC) (Jeongeup-si, Korea), Acinetobacter baumannii KCCM 40203, Pseudomonas aeruginosa KCCM 11328 from the Korea Culture Center of Microorganisms (KCCM) (Seoul, Korea). Klebsiella pneumoniae NCCP 16054 were obtained from the National Culture Collection for Pathogens (NCCP) (Osong, Korea). Additionally, two carbapenem-resistant E. coli (CREC E1 and E2), 11 carbapenem-resistant A. baumannii (CRAB C0–C10) and two carbapenem-resistant K. pneumoniae (CRKP K1 and K2) were isolated from the patients, who presented symptoms and signs of infection at Korea University Anam Hospital (Seoul, Korea) (IRB registration no. 2020AN0157, 4 March 2021). CRAB C0–C10 have the OXA-23 gene with carbapenem-resistance.
(§2) The minimum inhibitory concentrations (MIC) were determined using broth dilution method. Briefly, all the mentioned bacterial strains were grown overnight at 37 °C by Muller–Hinton (MH) media. […] After 16 h incubation, the bacterial growth was read at 600 nm using a SpectraMAX microplate reader (Molecular Devices, San Jose, CA, USA).

A. baumannii [2] = assay: MIC, broth dilution; format: cell-based, Acinetobacter baumannii KCCM 40203; details: 16 h, MH media, read-out: Minimal Inhibitory Concentration (MIC)
From the text: as §1, §2

CREC E1 = assay: MIC, broth dilution; format: cell-based, carbapenem-resistant E. coli; details: read-out: Minimal Inhibitory Concentration (MIC)
From the text: as §1, §2

CREC E2 = assay: MIC, broth dilution; format: cell-based, carbapenem-resistant E. coli; details: read-out: Minimal Inhibitory Concentration (MIC)
From the text: as §1, §2

[3] = test system: sheep red blood cells (sRBC); assay: Hemolytic assay; format: cell-based; details: 100 μM
Procedure: The peptide-induced toxicity was determined by hemolytic against Sheep red blood cells (sRBC). Briefly, Fresh sRBC were washed at least three times with phosphate-buffered saline (PBS) and the debris were removed by centrifugation (1000× g for 5 min, 4 °C). All the peptides including melittin control (0.2–100 μM) and positive control (1% (v/v) triton X-100) were incubated with 4% (v/v) sRBC for 1 h at 37 °C followed by centrifugation at 1000× g for 5 min. The supernatant was measured at 405 nm using a microplate reader.

E. coli [4] = format: cell-based, Escherichia coli; details: peptide pre-incubated 6 h at 37 °C
Procedure: (§3) All the peptides at their MICs were pre-incubated with proteolytic enzymes such as trypsin and α-chymotrypsin (10,000:1; peptide: enzyme ratio) for 6 h at 37 °C. Then, 100 μL of peptide-protease cocktail was added to the 100 µL bacterial suspension (E. coli, A. baumannii and CRAB C0, 2 × 10^5 CFU/mL) and further incubated for 16 h at 37 °C. Bacterial suspension without peptide and protease served as negative control. The analysis was repeated at three times using independent experiments, and the degree of bacterial growth was measured at 600 nm using a microplate reader.

A. baumannii [5] = format: cell-based, Acinetobacter baumannii; details: peptide pre-incubated 6 h at 37 °C
Procedure: as §3

[6] = In vivo toxicity, serum AST, ALT, BUN; parameters: species or system ICR mice; details: mice, 1 and 5 mg/kg i.p., 24 h
Procedure: Control mice received phosphate-buffered saline only and the treatment was performed for 24 h. (B) R-Pro9-3D prolonged the survival rate of mice infected with CRAB C0. […] In sepsis model, mice (5 mice per group) were treated with R-Pro9-3D (1 mg/kg) for 1 h and the antiseptic analyses were evaluated after CRAB C0 (6 × 10^6 CFU/mouse, 16 h) infection. (C) R-Pro9-3D restricted the bacterial entry in the lung, liver, and kidneys. The corresponding organ lysates were plated onto agar plates and the total no of bacterial colonies were scored. (D) R-Pro9-3D effectively normalized the endotoxin levels in CRAB C0-infected mice. (E–G) Effect of R-Pro9-3D on serum levels of AST, ALT and BUN. (H–K) R-Pro9-3D inhibited the production of inflammatory cytokines (TNF-α and IL-6) in the serum and lung lysates of CRAB C0-infected mice, as measured by enzyme-linked immunosorbent assay (ELISA). (L) Photomicrograph show the modulatory effect of R-Pro9-3D on neutrophil infiltration in the hematoxylin and eosin (H&E)-stained lung tissues (Magnification 20×, Scale bar 100 μm). […] Values are expressed as mean ± SEM (Five mice per group). […]
The ICR mice (n = 5 per group) were intraperitoneally (i.p.) injected with R-Pro9-3D (1 mg and 5 mg/kg/day in PBS) and the serum levels of AST, ALT, and BUN levels were determined using a standard kit from Asan Pharmaceutical as described previously.

Compound: CC[C@@H](C)[C@@H](NC(=O)[C@@H](Cc1c[nH]c2ccccc12)NC(=O)[C@@H](CCCNC(=N)N)NC(=O)[C@H](N)CCCNC(=N)N)C(=O)N[C@H](C)C(=O)N[C@H](CC(C)C)C(=O)N[C@H](Cc1c[nH]c2ccccc12)C(=O)N[C@H](CC(C)C)C(=O)N[C@H](CCCNC(=N)N)C(N)=O [R-Pro9-3D, rrwialwlr-NH2] (H-[dR][dR][dW][dI][dA][dL][dW][dL][dR]-NH2)
- MIC (E. coli [1]): 8 µM (≈ 10.1 µg/mL)
- MIC (A. baumannii [2]): 4 µM (≈ 5.07 µg/mL)
- MIC (CREC E1): 8 µM (≈ 10.1 µg/mL)
- MIC (CREC E2): 8 µM (≈ 10.1 µg/mL)
- Hemolytic activity [3]: 1.2%
- Minimal Inhibitory Concentration (MIC) (E. coli [4]; E. coli + Trypsin): 8 µM
- Minimal Inhibitory Concentration (MIC) (E. coli [4]; E. coli + α-Chymotrypsin): 8 µM
- Minimal Inhibitory Concentration (MIC) (A. baumannii [5]; A. baumannii + Trypsin): 4 µM
- Minimal Inhibitory Concentration (MIC) (A. baumannii [5]; A. baumannii + α-Chymotrypsin): 4 µM
- Serum levels of AST, ALT and BUN [6]: Neither dose of R-Pro9-3D elevated the levels of these enzymes
